From the supplement of paper PMC11451515

Tested on: NOMO1
Test: cell viability relative to DMSO control; higher = less cytotoxic
Details: 48 h
Procedure, shortened: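 Before seeding, each leukemia line was adapted for at least four passages in each medium. NOMO1 or SEM cells (500 cells/well) and P12-Ichikawa cells (1000 cells/well) went into 1536-well plates at 5 μl, then received library compounds in DMSO by pin dosing across 11 threefold concentrations, 47 μM to 0.79 nM. Readout was CellTiter-Glo One luminescence after 48 h at 37°C, and viability is given as a per-plate percentage of DMSO wells, with cell-free wells as background.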

[1] = HPLM + 10% dialyzed FBS, 0.000781 µM
[2] = HPLM + 10% dialyzed FBS, 0.00234 µM
[3] = HPLM + 10% dialyzed FBS, 0.00702 µM
[4] = HPLM + 10% dialyzed FBS, 0.0211 µM
[5] = HPLM + 10% dialyzed FBS, 0.0632 µM
[6] = HPLM + 10% dialyzed FBS, 0.19 µM
[7] = HPLM + 10% dialyzed FBS, 0.569 µM
[8] = HPLM + 10% dialyzed FBS, 1.71 µM
[9] = HPLM + 10% dialyzed FBS, 5.12 µM
[10] = HPLM + 10% dialyzed FBS, 15.4 µM
[11] = HPLM + 10% dialyzed FBS, 46.1 µM
[12] = RPMI 5 mM glucose + 10% FBS, 0.000781 µM
[13] = RPMI 5 mM glucose + 10% FBS, 0.00234 µM
[14] = RPMI 5 mM glucose + 10% FBS, 0.00702 µM
[15] = RPMI 5 mM glucose + 10% FBS, 0.0211 µM
[16] = RPMI 5 mM glucose + 10% FBS, 0.0632 µM
[17] = RPMI 5 mM glucose + 10% FBS, 0.19 µM
[18] = RPMI 5 mM glucose + 10% FBS, 0.569 µM
[19] = RPMI 5 mM glucose + 10% FBS, 1.71 µM
[20] = RPMI 5 mM glucose + 10% FBS, 5.12 µM
[21] = RPMI 5 mM glucose + 10% FBS, 15.4 µM
[22] = RPMI 5 mM glucose + 10% FBS, 46.1 µM
[23] = RPMI 5 mM glucose + 10% dialyzed FBS, 0.000781 µM
[24] = RPMI 5 mM glucose + 10% dialyzed FBS, 0.00234 µM
[25] = RPMI 5 mM glucose + 10% dialyzed FBS, 0.00702 µM
[26] = RPMI 5 mM glucose + 10% dialyzed FBS, 0.0211 µM
[27] = RPMI 5 mM glucose + 10% dialyzed FBS, 0.0632 µM
[28] = RPMI 5 mM glucose + 10% dialyzed FBS, 0.19 µM
[29] = RPMI 5 mM glucose + 10% dialyzed FBS, 0.569 µM
[30] = RPMI 5 mM glucose + 10% dialyzed FBS, 1.71 µM
[31] = RPMI 5 mM glucose + 10% dialyzed FBS, 5.12 µM
[32] = RPMI 5 mM glucose + 10% dialyzed FBS, 15.4 µM
[33] = RPMI 5 mM glucose + 10% dialyzed FBS, 46.1 µM

Structure (SMILES)	cell viability [1] [%]	cell viability [2] [%]	cell viability [3] [%]	cell viability [4] [%]	cell viability [5] [%]	cell viability [6] [%]	cell viability [7] [%]	cell viability [8] [%]	cell viability [9] [%]	cell viability [10] [%]	cell viability [11] [%]	cell viability [12] [%]	cell viability [13] [%]	cell viability [14] [%]	cell viability [15] [%]	cell viability [16] [%]	cell viability [17] [%]	cell viability [18] [%]	cell viability [19] [%]	cell viability [20] [%]	cell viability [21] [%]	cell viability [22] [%]	cell viability [23] [%]	cell viability [24] [%]	cell viability [25] [%]	cell viability [26] [%]	cell viability [27] [%]	cell viability [28] [%]	cell viability [29] [%]	cell viability [30] [%]	cell viability [31] [%]	cell viability [32] [%]	cell viability [33] [%]
COC(=O)Nc1nc2cc(C(=O)c3ccc(F)cc3)ccc2[nH]1	103	113	102	104	102	103	84.7	54.9	32.9	52.2	40.3	107	98.1	91.4	95.3	101	97.5	98.6	83.8	34.8	83.8	83.9	99.3	103	94.1	107	89.3	93	90.9	65.3	31.9	74.1	72.9
CC(=O)N[C@@H]1[C@@H](NC(N)=N)\C=C(/O[C@H]1[C@H](O)[C@H](O)CO)C(O)=O	84.9	105	116	119	127	119	122	120	122	115	101	102	114	106	111	113	113	118	120	111	121	113	100	106	114	121	117	118	115	116	106	134	124
COc1cc([C@@H](CC(=O)O)c2ccc(C)c(CN3C[C@@H](C)Oc4ccccc4[S+]3(=O)[O-])c2)cc2nnn(C)c12	123	120	111	121	110	118	96.8	119	66.6	30.3	26.5	114	117	117	98.7	97.1	102	104	99.3	92.4	90.3	91.1	102	118	116	104	113	99.5	100	101	86.2	79.6	75.4
CCOc1cc2ncc(C#N)c(Nc3ccc(OCc4ccccn4)c(Cl)c3)c2cc1NC(=O)/C=C/CN(C)C												119	109	114	105	112	124	49.7	20.8	13.6	11.2	8.95	116	111	103	109	117	113	83.9	36.2	18.3	13	11.5
C[C@]12Cc3cn[nH]c3C[C@@H]1CC[C@@H]1[C@@H]2CC[C@@]2(C)[C@H]1CC[C@]2(C)O												97.1	102	100	105	106	103	109	112	100	92.4	90.7	102	119	122	120	114	105	103	92.8	95.3	109	96.3
NC[C@@H]1O[C@H](O[C@H]2[C@@H](O)[C@H](O[C@@H]3[C@@H](O)[C@H](N)C[C@H](N)[C@H]3O[C@H]3O[C@H](CN)[C@@H](O)[C@H](O)[C@H]3N)O[C@@H]2CO)[C@H](N)[C@@H](O)[C@@H]1O.O=S(=O)(O)O.O=S(=O)(O)O.O=S(=O)(O)O	103	82.8	110	113	101	110	110	106	107	88.5	92.9	95.3	105	99.2	107	111	107	96.8	108	87.2	98.5	94.9	92.2	90.5	86.8	96.1	96.5	85.7	92.8	90.1	89.9	79.4	83
[O-]C(=O)C/1=N/C(=O)NC(=O)N1	87.7	108	92.9	96.9	101	95.1	86.3	96.9	85.4	83.4	88.9	93.5	96.8	99.9	88.9	92.8	91.8	86.3	91.3	85.4	80.9	93.1	90.2	93.2	88.2	86.2	90.8	92.8	81.1	78.5	79.9	77	81.8
O=C(CCCCCCC(=O)Nc1cccnc1)NO	92.3	108	105	101	114	91.1	108	109	91.3	70.5	8.89	83.6	91.2	98	84.1	84.9	91.8	100	83.6	84.3	72.8	12.3	101	92.3	93.9	93.1	101	102	110	85.1	95.4	74.1	12.7
CCN1\C=C(\C(O)=O)C(=O)C2=C1N=C(N3CCNCC3)C(=C2)F	74.8	73.4	85.3	93	88.6	82.2	86.2	84.3	46	42	20.3	78	83.9	93	83.8	81.1	85.1	79	86.4	81.4	79.1	16	55.2	91	81.6	82.5	79.2	74.1	82.6	82.5	81	76.3	20.1
CCN(CCO)CCCOc1ccc2c(Nc3cc(CC(=O)Nc4cccc(F)c4)[nH]n3)ncnc2c1	110	128	102	114	106	85.7	82.7	76.2	77.8	81.6	45.1	113	105	120	113	98.5	65.6	50.5	44.7	40.9	54.1	54	110	110	105	111	104	63.8	52.6	50.2	51.7	56.9	80.6
CCN1C[C@H](C)[N]2C(=C(O)C3=C2\C(=N/N(CC4=CC=C(F)C(=C4)Cl)C3=O)C(=O)NC)C1=O	107	125	118	126	120	131	98.2	92.5	96.5	58	11.9	107	98.3	111	111	104	96	97.7	99.2	96.3	80.3	11.4	106	115	107	121	118	98.4	102	111	92.6	65.6	13.9
O=C(CCCCCCC(=O)Nc1ccc([C@H]2O[C@@H](CSc3nc(-c4ccccc4)c(-c4ccccc4)o3)C[C@@H](c3ccc(CO)cc3)O2)cc1)NO												120	135	117	124	117	131	127	111	108	12.5	5.57											
CCCC(C)(COC(N)=O)COC(=O)NC(C)C (stereo not drawn)	107	123	125	138	143	131	127	130	123	141	140	116	122	132	127	145	130	127	125	137	150	129											
CC[S+](=O)([O-])Nc1ccc2c(c1)/C(=C(/Nc1ccc(CN3CCCCC3)cc1)c1ccccc1)C(=O)N2	111	114	111	110	113	85	79.3	59.1	45.9	33.8	10.4	104	102	111	117	99.3	49.3	47.5	53.1	47.6	39.9	18.5	99.2	102	121	101	104	62	63.8	54.5	44.6	37.1	18.2
CCc1cc(C(N)=S)ccn1	110	117	112	130	118	131	133	119	142	134	118	118	125	127	119	126	132	119	131	130	141	139	126	116	102	126	137	121	137	123	123	145	133
C=C1C(=O)[C@@]23C(CC[C@@H]1[C@H]2O)[C@@]12CO[C@]3(O)[C@@H](O)[C@@H]1C(C)(C)CC[C@@H]2O (stereo partly drawn)	119	125	124	127	121	117	125	147	111	82	10.6	118	122	115	111	135	130	133	137	129	98.4	8.83	120	123	127	122	121	127	143	138	124	114	14
